# Experimental data as given in patent US8980830B2 (priority 2007, dated 2015).
# Read-outs that look alike come from different tables or passages of the source. Bridge positions count the residues as written; N and C are the ends. Square brackets hold non-standard residues; d marks the D form. Side chains are listed from the residue outwards. Ends that are not written are not given here. Peptide text beside a SMILES is read from it. PhLac = O=C(O)[C@@H](O)Cc1ccccc1
# Legend:
# GLP-1 Receptor = GLP-1 Receptor (Homo sapiens, UniProt P43220); experiment: Functional assay, cAMP induction (luciferase reporter, HEK293) at GLP-1 receptor; assay type: cell-based
# Glucagon Receptor [1] = target: T1, Glucagon Receptor (Homo sapiens, UniProt P47871); experiment: cAMP inhibition: antagonism of glucagon-induced cAMP at glucagon receptor; assay type: cell-based; design: expressed in transfected cells; host or cells: HEK293
# [2] = Glucagon solubility assay; settings: Table 10
# Glucagon Receptor [3] = target: T1, Glucagon Receptor; experiment: Glucagon receptor binding assay (scintillation proximity competition binding)
# Glucagon Receptor [4] = target: T1, Glucagon Receptor; experiment: Functional assay, cAMP induction (luciferase reporter, HEK293) at glucagon receptor; assay type: cell-based; design: expressed in transfected cells; host or cells: HEK293
# [5] = Table 7, average ±STD, at least three experiments
# [6] = read-out: IC50 (nM) (Receptor binding), Table 12
# T1 sequence (P47871 26-477): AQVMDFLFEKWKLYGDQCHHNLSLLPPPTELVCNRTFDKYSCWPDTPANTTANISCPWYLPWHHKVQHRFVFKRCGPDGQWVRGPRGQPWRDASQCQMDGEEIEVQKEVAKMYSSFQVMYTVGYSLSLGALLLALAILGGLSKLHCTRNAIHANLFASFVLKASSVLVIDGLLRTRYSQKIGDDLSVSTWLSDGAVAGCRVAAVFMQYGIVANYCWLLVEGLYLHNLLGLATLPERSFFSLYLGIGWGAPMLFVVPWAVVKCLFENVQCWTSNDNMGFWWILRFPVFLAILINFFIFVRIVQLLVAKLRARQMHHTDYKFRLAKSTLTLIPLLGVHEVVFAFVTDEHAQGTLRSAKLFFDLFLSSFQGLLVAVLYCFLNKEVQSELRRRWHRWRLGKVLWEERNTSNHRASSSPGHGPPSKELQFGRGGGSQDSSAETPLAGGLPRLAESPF
# Sequence of GLP-1 Receptor (P43220 24-463): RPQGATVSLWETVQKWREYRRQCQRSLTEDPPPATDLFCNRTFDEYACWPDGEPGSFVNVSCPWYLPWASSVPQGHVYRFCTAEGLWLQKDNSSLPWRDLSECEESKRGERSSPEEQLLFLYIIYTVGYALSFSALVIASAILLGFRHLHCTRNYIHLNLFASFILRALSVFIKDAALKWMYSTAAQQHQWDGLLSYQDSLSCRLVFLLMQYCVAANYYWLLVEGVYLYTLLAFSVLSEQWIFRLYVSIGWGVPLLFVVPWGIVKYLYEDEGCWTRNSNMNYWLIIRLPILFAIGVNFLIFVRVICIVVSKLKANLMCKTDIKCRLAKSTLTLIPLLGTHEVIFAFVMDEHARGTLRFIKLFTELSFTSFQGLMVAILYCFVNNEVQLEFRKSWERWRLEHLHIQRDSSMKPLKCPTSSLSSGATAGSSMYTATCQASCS
compound,measurement,setting,value
"CSCC[C@H](NC(=O)[C@H](CC(C)C)NC(=O)[C@H](Cc1c[nH]c2ccccc12)NC(=O)[C@H](CCC(N)=O)NC(=O)[C@@H](NC(=O)[C@H](Cc1ccccc1)NC(=O)[C@H](CC(=O)O)NC(=O)[C@H](CCC(N)=O)NC(=O)[C@H](C)NC(=O)[C@H](CCCNC(=N)N)NC(=O)[C@H](CCCNC(=N)N)NC(=O)[C@H](CCC(=O)O)NC(=O)[C@H](CC(=O)O)NC(=O)[C@H](CC(C)C)NC(=O)[C@H](Cc1ccc(O)cc1)NC(=O)[C@H](CCCCN)NC(=O)[C@H](CO)NC(=O)[C@H](Cc1ccc(O)cc1)NC(=O)[C@H](CCC(=O)O)NC(=O)[C@H](CO)NC(=O)[C@@H](NC(=O)[C@@H](O)Cc1ccccc1)[C@@H](C)O)C(C)C)C(=O)N[C@@H](CC(N)=O)C(=O)N[C@H](C(=O)NCC(=O)N1CCC[C@H]1C(=O)N[C@@H](CO)C(=O)N[C@@H](CO)C(=O)NCC(=O)N[C@@H](C)C(=O)N1CCC[C@H]1C(=O)N1CCC[C@H]1C(=O)N1CCC[C@H]1C(=O)N[C@@H](CO)C(N)=O)[C@@H](C)O [[PLA6, E9, E16]G(6-39)] (H-[PhLac]TSEYSKYLDERRAQDFVQWLMNTGPSSGAPPPS-NH2)",EC50,"GLP-1 Receptor; GLP-1 agonism EC50 (nM), Table 16",1760 nM
same,IC50,"Glucagon Receptor [1]; Glucagon antagonism IC50 (nM, inhibit 0.2-0.8 nM glucagon), Table 16, combined results of three assays",58.1 nM
"CSCC[C@H](NC(=O)[C@H](CC(C)C)NC(=O)[C@H](Cc1c[nH]c2ccccc12)NC(=O)[C@H](CCC(N)=O)NC(=O)[C@@H](NC(=O)[C@H](Cc1ccccc1)NC(=O)[C@H](CC(=O)O)NC(=O)[C@H](CCC(N)=O)NC(=O)[C@H](C)NC(=O)[C@H](CCCNC(=N)N)NC(=O)[C@H](CCCNC(=N)N)NC(=O)[C@H](CO)NC(=O)[C@H](CC(=O)O)NC(=O)[C@H](CC(C)C)NC(=O)[C@H](Cc1ccc(O)cc1)NC(=O)[C@H](CCCCN)NC(=O)[C@H](CO)NC(=O)[C@H](Cc1ccc(O)cc1)NC(=O)[C@H](CC(=O)O)NC(=O)[C@H](CO)NC(=O)[C@@H](NC(=O)[C@@H](O)Cc1ccccc1)[C@@H](C)O)C(C)C)C(=O)N[C@@H](CC(=O)O)C(=O)N[C@H](C(N)=O)[C@@H](C)O [[PLA^6, D^9, D^28] Glucagon(aa6-29)-NH2]","Solubility (%, pH 6-8)",[2],100%
"CSCC[C@H](NC(=O)[C@H](CC(C)C)NC(=O)[C@H](Cc1c[nH]c2ccccc12)NC(=O)[C@H](CCC(N)=O)NC(=O)[C@@H](NC(=O)[C@H](Cc1ccccc1)NC(=O)[C@H](CC(=O)O)NC(=O)[C@H](CCC(N)=O)NC(=O)[C@H](C)NC(=O)[C@H](CCCNC(=N)N)NC(=O)[C@H](CCCNC(=N)N)NC(=O)[C@H](CO)NC(=O)[C@H](CC(=O)O)NC(=O)[C@H](CC(C)C)NC(=O)[C@H](Cc1ccc(O)cc1)NC(=O)[C@H](CCCCN)NC(=O)[C@H](CO)NC(=O)[C@H](Cc1ccc(O)cc1)NC(=O)[C@H](CC(=O)O)NC(=O)[C@H](CO)NC(=O)[C@@H](NC(=O)[C@@H](O)Cc1ccccc1)[C@@H](C)O)C(C)C)C(=O)N[C@@H](CC(N)=O)C(=O)N[C@H](C(=O)O)[C@@H](C)O [[PLA^6, D^9]Glucagon(aa6-29)-COOH] (H-[PhLac]TSDYSKYLDSRRAQDFVQWLMNT-OH)","Solubility (%, pH 6-8)",[2],96%
"CSCC[C@H](NC(=O)[C@H](CC(C)C)NC(=O)[C@H](Cc1c[nH]c2ccccc12)NC(=O)[C@H](CCC(N)=O)NC(=O)[C@@H](NC(=O)[C@H](Cc1ccccc1)NC(=O)[C@H](CC(=O)O)NC(=O)[C@H](CCC(N)=O)NC(=O)[C@H](C)NC(=O)[C@H](CCCNC(=N)N)NC(=O)[C@H](CCCNC(=N)N)NC(=O)[C@H](CO)NC(=O)[C@H](CC(=O)O)NC(=O)[C@H](CC(C)C)NC(=O)[C@H](Cc1ccc(O)cc1)NC(=O)[C@H](CCCCN)NC(=O)[C@H](CO)NC(=O)[C@H](Cc1ccc(O)cc1)NC(=O)[C@H](CC(=O)O)NC(=O)[C@H](CO)NC(=O)[C@@H](NC(=O)[C@@H](O)Cc1ccccc1)[C@@H](C)O)C(C)C)C(=O)N[C@@H](CC(N)=O)C(=O)N[C@H](C(N)=O)[C@@H](C)O [[PLA^6, D^9]Glucagon(aa6-29)-NH2] (H-[PhLac]TSDYSKYLDSRRAQDFVQWLMNT-NH2)","Solubility (%, pH 6-8)",[2],11%
"CSCC[C@H](NC(=O)[C@H](CC(C)C)NC(=O)[C@H](Cc1c[nH]c2ccccc12)NC(=O)[C@H](CCC(N)=O)NC(=O)[C@@H](NC(=O)[C@H](Cc1ccccc1)NC(=O)[C@H](CC(=O)O)NC(=O)[C@H](CCC(N)=O)NC(=O)[C@H](C)NC(=O)[C@H](CCCNC(=N)N)NC(=O)[C@H](CCCNC(=N)N)NC(=O)[C@H](CO)NC(=O)[C@H](CC(=O)O)NC(=O)[C@H](CC(C)C)NC(=O)[C@H](Cc1ccc(O)cc1)NC(=O)[C@H](CCCCN)NC(=O)[C@H](CO)NC(=O)[C@H](Cc1ccc(O)cc1)NC(=O)[C@H](CCC(=O)O)NC(=O)[C@H](CO)NC(=O)[C@@H](NC(=O)[C@@H](O)Cc1ccccc1)[C@@H](C)O)C(C)C)C(=O)N[C@@H](CC(N)=O)C(=O)N[C@H](C(=O)NCC(=O)N1CCC[C@H]1C(=O)N[C@@H](CO)C(=O)N[C@@H](CO)C(=O)NCC(=O)N[C@@H](C)C(=O)N1CCC[C@H]1C(=O)N1CCC[C@H]1C(=O)N1CCC[C@H]1C(=O)N[C@@H](CO)C(N)=O)[C@@H](C)O [[PLA^6, E^9]Glucagon (aa6-29 + CEX)-NH2] (H-[PhLac]TSEYSKYLDSRRAQDFVQWLMNTGPSSGAPPPS-NH2)","Solubility (%, pH 6-8)",[2],16%
"CSCC[C@H](NC(=O)[C@H](CC(C)C)NC(=O)[C@H](Cc1c[nH]c2ccccc12)NC(=O)[C@H](CCC(N)=O)NC(=O)[C@@H](NC(=O)[C@H](Cc1ccccc1)NC(=O)[C@H](CC(=O)O)NC(=O)[C@H](CCC(N)=O)NC(=O)[C@H](C)NC(=O)[C@H](CCCNC(=N)N)NC(=O)[C@H](CCCNC(=N)N)NC(=O)[C@H](CO)NC(=O)[C@H](CC(=O)O)NC(=O)[C@H](CC(C)C)NC(=O)[C@H](Cc1ccc(O)cc1)NC(=O)[C@H](CCCCN)NC(=O)[C@H](CO)NC(=O)[C@H](Cc1ccc(O)cc1)NC(=O)[C@H](CCC(=O)O)NC(=O)[C@H](CO)NC(=O)[C@@H](NC(=O)[C@@H](O)Cc1ccccc1)[C@@H](C)O)C(C)C)C(=O)N[C@@H](CC(N)=O)C(=O)N[C@H](C(N)=O)[C@@H](C)O [[PLA^6, E^9]Glucagon(aa6-29)-NH2] (H-[PhLac]TSEYSKYLDSRRAQDFVQWLMNT-NH2)",GLP-1 agonism EC50(nM),GLP-1 Receptor; Table 25,No agonism
same,"Solubility (%, pH 6-8)",[2],11%
same,IC50,"Glucagon Receptor [1]; Glucagon antagonism IC50(nM, inhibit 0.5nM G), Table 25",23.7 ± 4.16 nM
same,IC50,"Glucagon Receptor [3]; read-out: IC50 (nM) (Receptor binding), Table 11, ND: not detected",12.3 ± 0.13 nM
"CSCC[C@H](NC(=O)[C@H](CC(C)C)NC(=O)[C@H](Cc1c[nH]c2ccccc12)NC(=O)[C@H](CCC(N)=O)NC(=O)[C@@H](NC(=O)[C@H](Cc1ccccc1)NC(=O)[C@H](CC(=O)O)NC(=O)[C@@H]1CCCCNC(=O)CC[C@H](NC(=O)[C@H](CC(=O)O)NC(=O)[C@H](CC(C)C)NC(=O)[C@H](Cc2ccc(O)cc2)NC(=O)[C@H](CCCCN)NC(=O)[C@H](CO)NC(=O)[C@H](Cc2ccc(O)cc2)NC(=O)[C@H](CC(=O)O)NC(=O)[C@H](CO)NC(=O)[C@@H](NC(=O)[C@H](Cc2ccccc2)OC(=O)[C@@H](NC(=O)CNC(=O)[C@H](CCC(N)=O)NC(=O)[C@@H](N)CO)[C@@H](C)O)[C@@H](C)O)C(=O)N[C@@H](CCCNC(=N)N)C(=O)N[C@@H](CCCNC(=N)N)C(=O)N[C@@H](C)C(=O)N1)C(C)C)C(=O)N[C@@H](CC(=O)O)C(=O)N[C@H](C(N)=O)[C@@H](C)O [[S2Q3-O-PLA6, D9, E16K20(Lactam), D28] G(2-29)] (H-SQGT[PhLac]TSDYSKYLDERRAKDFVQWLMDT-NH2; lactam 15-19; N-terminus assumed)",EC50,"GLP-1 Receptor; GLP-1 agonism EC50 (nM), Table 20",45.7 ± 12.3 nM
same,IC50,"Glucagon Receptor [1]; Glucagon antagonism IC50 (nM, inhibit 0.8 nM glucagon), Table 24",20.8 ± 3.09 nM
FTSEYSKYLDSRRAQDFVQWLMNT-NH2 [[Glu^9]Glucagon(aa6-29)-NH2],cAMP pA2,Glucagon Receptor [1],7.16 ± 0.27
same,IC50,Glucagon Receptor [3]; [5],36.4 ± 5.23 nM
same,IC50,"Glucagon Receptor [3]; read-out: IC50 (nM) receptor binding, Table 9",36.4 ± 5.23 nM
GTFTSEYSKYLDSRRAQDFVQWLMNT-NH2 [[Glu^9]Glucagon(aa4-29)-NH2],IC50,Glucagon Receptor [3]; [5],136 ± 17.8 nM
same,IC50,"Glucagon Receptor [3]; read-out: Receptor Binding IC50, Table 4",136 nM
"Glucagon Cys^24 maleimido, PEG-3.4K-dimer [Glucagon C24 Dimer]",EC50,"Glucagon Receptor [4]; read-out: cAMP Induction Glucagon Receptor EC50, Table 3, pegylated analogs",0.1 ± 0.05 nM
"HSQGTFTSDYARYLDARRAREFIKWLVRGRG-NH2 [ANK2 (Bayer peptide), reference compound]","GLP-1 agonism, in words",GLP-1 Receptor,very potent GLP-1 agonism
same,"glucagon agonism, in words",Glucagon Receptor [4],"weak, but full glucagon agonism"
same,"glucagon antagonism, in words",Glucagon Receptor [1],no meaningful glucagon antagonism
same,Glucagon IC50 (nM),Glucagon Receptor [1]; Table 14,agonist
same,"Glucagon antagonism IC50 (nM, inhibit 0.8 nM glucagon)",Glucagon Receptor [1]; Table 19,weak agonist
"[C^8(20kDaPEG), E^9]Glucagon(aa6-29)-NH2 (FTC(PEG 20 kDa)EYSKYLDSRRAQDFVQWLMNT-NH2)","IC50 (nM) (cAMP, inhibit 0.2 mM Glucagon)",Glucagon Receptor [1]; Table 12,no antagonism
same,IC50,Glucagon Receptor [3]; [6],> 1000 nM
"[E^9, C^11(20kDaPEG)]Glucagon(aa6-29)-NH2 (FTSEYC(PEG 20 kDa)KYLDSRRAQDFVQWLMNT-NH2)","IC50 (nM) (cAMP, inhibit 0.2 mM Glucagon)",Glucagon Receptor [1]; Table 12,no antagonism
same,IC50,Glucagon Receptor [3]; [6],> 1000 nM
"[E^9, C^24 (20kDaPEG)]Glucagon(aa6-29)-NH2 (FTSEYSKYLDSRRAQDFVC(PEG 20 kDa)WLMNT-NH2)","IC50 (nM) (cAMP, inhibit 0.2 mM Glucagon)",Glucagon Receptor [1]; Table 12,no antagonism
same,IC50,Glucagon Receptor [3]; [6],> 1000 nM
same,IC50,"Glucagon Receptor [3]; read-out: IC50 (nM) (Receptor binding), Table 12, listed as [Phe^6, E^9, C^24(20kDaPEG)]Glucagon(aa6-29)-NH2",> 10000 nM
"[K^5(CH2CH2S-20kDaPEG), E^9]Glucagon(aa5-29)-NH2 (K([CH2CH2S-PEG 20 kDa])FTSEYSKYLDSRRAQDFVQWLMNT-NH2)","IC50 (nM) (cAMP, inhibit 0.2 mM Glucagon)",Glucagon Receptor [1]; Table 12,no antagonism
same,IC50,Glucagon Receptor [3]; [6],> 10000 nM
"[PLA6, E16K20(Lactam), C24(20 kDa), D28]G(6-29) ([PhLac]TSDYSKYLDERRAKDFVC(PEG 20 kDa)WLMDT-NH2; lactam 11-15)",EC50,"GLP-1 Receptor; read-out: GLP-1 agonism EC50, Table 21",450 to 1840 nM
same,IC50,Glucagon Receptor [1]; read-out: Glucagon antagonism IC50(nM) (inhibit 0.2-0.8 nM glucagon),374 to 1460 nM
"[d-Cys^5(20kDaPEG), E^9]Glucagon(aa5-29)-NH2 ([dC](PEG 20 kDa)FTSEYSKYLDSRRAQDFVQWLMNT-NH2)",IC50,"Glucagon Receptor [1]; read-out: IC50 (nM) (cAMP, inhibit 0.2 mM Glucagon), Table 12, inhibit 0.2 mM Glucagon",14800 nM
same,IC50,Glucagon Receptor [3]; [6],> 10000 nM
